Data on eleven molecules can be found in patent publication US12459951B2, “Compounds that interact with RAS superfamily proteins for treatment of cancers, inflammatory diseases, rasopathies, and fibrotic disease” (SHY Therapeutics, LLC, priority 2022, dated 2025).

Structures are written as SMILES. pIC50: −log10 of the molar value. Like-named read-outs stand apart in the source and are kept apart here. Bounds are passed on as bounds.

For test [1], the system named is BT-549 (expressing wild type KRAS). As to the kind of experiment: Proliferation Assay (Cell Viability Assay). The test is classed as cell-based. The following applies: Homo sapiens; for IC50: BT-549, Proliferation assay, BT549, read-out: BT549 IC50 (nM) TNBC. The procedure:
(§1) Cell lines: these Human tumor-derived cell lines were purchased from American Type Culture Collection. Human tumor-derived pancreatic cancer cell line MiaPaca-2 (expressing KRAS G12C mutant) and Panc-1 (expressing KRas G12D mutant), and Human non-small cell lung cancer (NSCLC) cell line A549 (expressing KRas G12S mutant), and Human melanoma cell line A375 (wild type Kras) were grown in complete DMEM-High Glucose medium. Human tumor-derived pancreatic cancer cell lines SU86.86 (expressing KRas G12D mutant), BxPC3 (expressing wild type K-Ras), and Human non-small cell lung cancer (NSCLC) cell lines NCI-H441 (expressing KRas G12S mutant), NCI-H1975 (expressing wild type KRas), NCI-H358 (expressing KRas G12C mutant), NCI-H1299 (expressing NRas Q61H mutant), and Human colon cancer cell line SW-620 (expressing KRas G12V mutant), Human triple negative breast cancer cell line HCC-1806 (expressing wild type KRas), and Human tumor-derived multiple myeloma cell line MM.1R (expressing wild type KRAS), were grown in RPMI 1640 medium. Human tumor-derived breast cancer cell line BT-549 (expressing wild type KRAS) was grown in RPMI 1640 medium in the presence of 11.8U insulin. Human tumor-derived pancreatic cancer cell line HPAF-II (expressing KRas G12D mutant), Human triple negative breast cancer cell line BT-20 (expressing wild type KRas), and Human colon cancer cell line LS123 (expressing KRas G12S mutant), were grown in EMEM medium. Human tumor-derived pancreatic cancer cell line CF-PAC1 (expressing KRas G12V mutant) was frown in IMDM medium, and Human colon cancer cell line HT29 (expressing wild type KRas) was grown in McCoy's 5A medium. The colon cancer cell line GP2d (expressing KRas G12D mutant) was purchased from MilliporeSigma and grown in DMEM-High Glucose medium. All cell lines were supplemented with penicillin (100 U/mL), streptomycin (100 μg/mL), and 10% heat-inactivated FBS at 37° C. in a humidified incubator with 5% CO2.
(§2) Method: Cells were plated at 2000 to 5000 cells/well density in 96-wells plate and cultured overnight. Small molecules that were tested were added to the cells in the final concentration of 10 μM in the presence of 0.3% DMSO and 10% FBS, and incubated for 2-4 days at 37° C. in a humidified incubator with 5% CO2. For IC50 value determination, serial dilutions of compounds were added to cells under the same conditions.
(§3) Assay: At the end of the incubation period, cell viability was determined using the CellTiter 96® Aqueous One Solution Cell Proliferation Assay according to manufacturer specifications (Promega, Madison, WI). The percentage of small molecules inhibition of cellular proliferation was calculated from raw data.

In test [2] the test system is NCI-H358 (expressing KRas G12C mutant). As to the kind of experiment: Proliferation Assay (Cell Viability Assay). The test is classed as cell-based. The following applies: Homo sapiens; for IC50: Proliferation assay, NCI-H358, read-out: NCI-H358 IC50 (nM) NSCLC. The procedure: as §1, §2, §3
The subject of test [3] is GP2d (expressing KRas G12D mutant). The test is described as follows: Proliferation Assay (Cell Viability Assay). In kind it is cell-based. The following applies: Homo sapiens; for IC50: Proliferation assay, read-out: GP2d IC50 (nM) Colorectal. The procedure: as §1, §2, §3
Test [4] deals with MM.1R (expressing wild type KRAS). As to the kind of experiment: Proliferation Assay (Cell Viability Assay). The following applies: Homo sapiens, read-out: MM.1R IC50 (nM) Multiple Myloma. In kind it is cell-based. The procedure: as §1, §2, §3
In a further test the test system is A375 (wild type Kras). As to the kind of experiment: Proliferation Assay (Cell Viability Assay). In kind it is cell-based. The following applies: Homo sapiens, A-375; for IC50: Proliferation assay, A375, read-out: A375 IC50 (nM) Melanoma. As to the method:
as §1, §2, §3

For the next test, the system named is KRas Q61H mutant. As to the kind of experiment: Ras GTP Binding Domain Inhibition Assay (Ras Superfamily Assay). The following applies: 20 μM compound; for KRas Q61H mutant + SOS: % inh.: with SOS; for KRas Q61H mutant: % inh.: without SOS. In outline: (§4)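 Binding of 100 nM fluorescent GTP (Cy3 or Cy5, 45 min, room temperature) was read after washes from plate-captured His-tagged protein. Beforehand, compounds at 20 μM or in dilution series for IC50 sat 3 h on the protein in Tris buffer pH 7.4 or 7.0 with 1% DMSO, Sos GEF optionally added for the last hour.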

Another test addresses T1, Rho-A (Homo sapiens, UniProt P61586).
T1 construct: made in house
The description is as above. The following applies: read-out: Rho-A: % inh.. In outline: as §4

A further test relates to KRas G12C mutant. Described as above. The following applies: 20 μM compound; for KRas G12C mutant + SOS: % inh.: with SOS; for KRas G12C mutant: % inh.: without SOS. The essentials:
as §4

T1 sequence (P61586 whole entry): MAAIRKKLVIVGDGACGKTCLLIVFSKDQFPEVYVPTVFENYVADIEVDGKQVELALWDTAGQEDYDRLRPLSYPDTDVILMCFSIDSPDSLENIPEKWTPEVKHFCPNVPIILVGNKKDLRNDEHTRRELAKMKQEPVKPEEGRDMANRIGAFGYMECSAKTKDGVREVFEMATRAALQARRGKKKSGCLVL

Regarding `COc1ccnc(Nc2nc(-c3nccn3C)nn3cc(-c4ccn(C)n4)c(C)c23)c1` [Compound 102, N-(4-Methoxypyridin-2-yl)-5-methyl-2-(1-methyl-1H-imidazol-2-yl)-6-(1-methyl-1H-pyrazol-3-yl)pyrrolo[2,1-f][1,2,4]triazin-4-amine], the half-maximal inhibitory concentration (IC50) in test [1] was 1 to 10 nM; in test [2], 1 to 10 nM; in test [3] it was 10 to 50 nM; in test [4], less than 1 nM; in the test with A375 (wild type Kras), 1 to 10 nM.

With `Cc1c(-c2ccn(C(C)C)n2)cn2nc(-c3ccccn3)nc(O)c12` [Compound 8, 6-(1-Isopropyl-1H-pyrazol-3-yl)-5-methyl-2-(pyridin-2-yl)pyrrolo[2,1-f][1,2,4]triazin-4-ol], in the test on KRas Q61H mutant, the “KRas Q61H mutant + SOS: % inh.” value is listed as 0 (0 = 0% inhibition) and the “KRas Q61H mutant: % inh.” value is 0 (0 = 0% inhibition). Also, the inhibition at 20 µM on Rho-A worked out at 0%. Further, in the test on KRas G12C mutant, the “KRas G12C mutant + SOS: % inh.” value is “A (A = 1-25% inhibition)” and the “KRas G12C mutant: % inh.” value is 0 (0 = 0% inhibition).

For `Cc1c(-c2ccn(C)n2)cn2nc(-c3nccn3C)nc(Nc3cc4n(n3)CCO4)c12` [Compound 124, N-(5-Methyl-2-(1-methyl-1H-imidazol-2-yl)-6-(1-methyl-1H-pyrazol-3-yl)pyrrolo[2,1-f][1,2,4]triazin-4-yl)-2,3-dihydropyrazolo[5,1-b]oxazol-6-amine], the IC50 in test [1] was 1 to 10 nM; in test [2] it was 1 to 10 nM; in test [3], 1 to 10 nM; in test [4] it was less than 1 nM; in the test on A375 (wild type Kras), 1 to 10 nM.

For `Cc1c(-c2ccn(C)n2)cn2nc(-c3nccn3C)nc(Cl)c12` [Compound 99, 4-Chloro-5-methyl-2-(1-methyl-1H-imidazol-2-yl)-6-(1-methyl-1H-pyrazol-3-yl)pyrrolo[2,1-f][1,2,4]triazine], in the test on KRas G12C mutant, the “KRas G12C mutant + SOS: % inh.” value is “B (B = 26-49% inhibition)” and the “KRas G12C mutant: % inh.” value is on record as “B (B = 26-49% inhibition)”.

As for `COc1cc(Nc2nc(-c3nccn3C)nn3cc(-c4ccn(C(C)C)n4)c(C)c23)ncn1` [Compound 6, 6-(1-Isopropyl-1H-pyrazol-3-yl)-N-(6-methoxypyrimidin-4-yl)-5-methyl-2-(1-methyl-1H-imidazol-2-yl)pyrrolo[2,1-f][1,2,4]triazin-4-amine], in the test with KRas Q61H mutant, the “KRas Q61H mutant + SOS: % inh.” value is “C (C = 50-75% inhibition)”. In the test on KRas Q61H mutant, the “KRas Q61H mutant: % inh.” value is given as “C (C = 50-75% inhibition)”. Also, the inhibition at 20 µM on Rho-A is 76 to 100%. For the same molecule, in the test with KRas G12C mutant, the “KRas G12C mutant + SOS: % inh.” value is listed as “C (C = 50-75% inhibition)”. Further, the “KRas G12C mutant: % inh.” value in the test with KRas G12C mutant is “C (C = 50-75% inhibition)”. For the same molecule, the IC50 in test [1] is greater than 50 nM; in test [2], 10 to 50 nM; in test [3] it was greater than 50 nM; in test [4], 1 to 10 nM; in the test with A375 (wild type Kras) it was greater than 50 nM. The pIC50 was greater than 6.82 in test [1] (BT-549, Breast (TNBC), KRas WT, read-out: Proliferation assay IC50); greater than 6.82 in test [2] (NCI-H358, NSCLC, KRas G12C, read-out: Proliferation assay IC50); 6.30 to 6.82 in test [3] (colon, KRas G12D, read-out: Proliferation assay IC50); greater than 6.82 in the test with A375 (wild type Kras) (A375, melanoma, KRas WT, read-out: Proliferation assay IC50).

For the molecule `Cc1c(-c2ccn(C)n2)cn2nc(-c3nccn3C)nc(Nc3cc4n(n3)CCC4)c12` [Compound 100, N-(5,6-Dihydro-4H-pyrrolo[1,2-b]pyrazol-2-yl)-5-methyl-2-(1-methyl-1H-imidazol-2-yl)-6-(1-methyl-1H-pyrazol-3-yl)pyrrolo[2,1-f][1,2,4]triazin-4-amine], the IC50 in test [1] was 10 to 50 nM; in test [2], greater than 50 nM; in test [3], 10 to 50 nM; in test [4], less than 1 nM; in the test on A375 (wild type Kras) it was greater than 50 nM.

On to `COc1cc(Nc2nc(-c3nccn3C)nn3cc(-c4ccccn4)c(C)c23)ncn1` [Compound 94, N-(6-Methoxypyrimidin-4-yl)-5-methyl-2-(1-methyl-1H-imidazol-2-yl)-6-(pyridin-2-yl)pyrrolo[2,1-f][1,2,4]triazin-4-amine], for which, in the test on KRas Q61H mutant, the “KRas Q61H mutant + SOS: % inh.” value is “C (C = 50-75% inhibition)” and the “KRas Q61H mutant: % inh.” value is “B (B = 26-49% inhibition)”. Moreover, the inhibition at 20 µM on Rho-A fell in the range of 76 to 100%. In addition, in the test with KRas G12C mutant, the “KRas G12C mutant + SOS: % inh.” value is “B (B = 26-49% inhibition)” and the “KRas G12C mutant: % inh.” value was “B (B = 26-49% inhibition)”.

For `CO[C@H]1CC[C@@H](Nc2nc(-c3ccccn3)nn3cc(-c4ccn(C(C)C)n4)c(C)c23)C1` (racemic) [Compound 9, rac 6-(1-Isopropyl-1H-pyrazol-3-yl)-N-((1R,3S)-3-methoxycyclopentyl)-5-methyl-2-(pyridin-2-yl)pyrrolo[2,1-f][1,2,4]triazin-4-amine], in the test with KRas Q61H mutant, the “KRas Q61H mutant + SOS: % inh.” value is 0 (0 = 0% inhibition) and the “KRas Q61H mutant: % inh.” value was “A (A = 1-25% inhibition)”. For the same molecule, the inhibition at 20 µM on Rho-A was found to be 0%. In the test with KRas G12C mutant, the “KRas G12C mutant + SOS: % inh.” value is listed as 0 (0 = 0% inhibition) and the “KRas G12C mutant: % inh.” value is “B (B = 26-49% inhibition)”.

For `COc1ccnc(Nc2nc(-c3nccn3C)nn3cc(-c4ccn(C(F)F)n4)c(C)c23)n1` [Compound 95, 6-(1-(Difluoromethyl)-1H-pyrazol-3-yl)-N-(4-methoxypyrimidin-2-yl)-5-methyl-2-(1-methyl-1H-imidazol-2-yl)pyrrolo[2,1-f][1,2,4]triazin-4-amine], in the test with KRas Q61H mutant, the “KRas Q61H mutant + SOS: % inh.” value is reported as “C (C = 50-75% inhibition)” and the “KRas Q61H mutant: % inh.” value is given as “C (C = 50-75% inhibition)”. Moreover, at Rho-A, the inhibition at 20 µM was 76 to 100%. In addition, in the test on KRas G12C mutant, the “KRas G12C mutant + SOS: % inh.” value is given as “B (B = 26-49% inhibition)” and the “KRas G12C mutant: % inh.” value was “B (B = 26-49% inhibition)”.

On to `Cc1c(-c2ccn(C)n2)cn2nc(-c3nccn3C)nc(Nc3cc(C4CC4)[nH]n3)c12` [Compound 104, N-(5-Cyclopropyl-1H-pyrazol-3-yl)-5-methyl-2-(1-methyl-1H-imidazol-2-yl)-6-(1-methyl-1H-pyrazol-3-yl)pyrrolo[2,1-f][1,2,4]triazin-4-amine], for which the IC50 in test [1] was 10 to 50 nM; in test [2] it was greater than 50 nM; in test [3] it was 10 to 50 nM; in test [4] it was less than 1 nM; in the test with A375 (wild type Kras) it was greater than 50 nM.

With `Cc1c(-c2ccn(C(C)C)n2)cn2nc(-c3nccn3C)nc(Nc3nccn3C)c12` [Compound 93, 6-(1-Isopropyl-1H-pyrazol-3-yl)-5-methyl-N,2-bis(1-methyl-1H-imidazol-2-yl)pyrrolo[2,1-f][1,2,4]triazin-4-amine], in the test with KRas Q61H mutant, the “KRas Q61H mutant + SOS: % inh.” value is reported as “D (D = 76-100% inhibition)” and the “KRas Q61H mutant: % inh.” value is “C (C = 50-75% inhibition)”. For the same molecule, the inhibition at 20 µM at Rho-A is 76 to 100%. In the test on KRas G12C mutant, the “KRas G12C mutant + SOS: % inh.” value is “C (C = 50-75% inhibition)” and the “KRas G12C mutant: % inh.” value is recorded as “D (D = 76-100% inhibition)”.
